A short description of the data set: Solubility in water. The format is physicochemical. The source says:
For the solid compounds, the solubility is defined as the percentage by weight of the compound in a solution at equilibrium with the solid phase at the above temperature T and a pressure of one atmosphere. For the liquid compounds (or solids in the pure state), the aqueous mixtures of which separate into two or more phases, the solubility taken into account is the percentage by weight of the specified compound in the water-rich liquid phase at equilibrium at the operating temperature (temperature at which said particles are manufactured (as the case may be, between 20 and 95° C.)) and a pressure of one atmosphere.

For `OC[C@@H](O)[C@H](O)[C@@H](O)CO` [xylitol], the solubility in water reads like this: (at 25° C.) 30 % by weight; (temperature not stated) 39%.
With `CCCCN(CCC(=O)OCC)C(C)=O` [IR3535, ethyl 3-[acetyl(butyl)amino]propanoate, reference compound], under “at 20° C.”, the solubility in water entry is recorded as “approximately 7 % by weight”.

These data come from patent US10449128B2, “Fibrous support comprising particles containing a partially water-soluble active agent, particles, and methods for producing said particles” (priority 2014, dated 2019).
